The values below are quoted from earlier work in article PMC10363405 (Methods in molecular biology (Clifton, N.J.), 2022).

What is called Kd is the free concentration of one partner at which half of the binding sites on the other are occupied at equilibrium, for simple one-to-one binding.

The target in the series is β-tubulin. Put plainly: fluorescence enhancement titration with crosslinked microtubules. The class given is binding, Bos taurus.

Turning to `CC(=O)OC1C(=O)C2(C)C(OC(=O)CCNC(=O)c3cc4cc(F)c(O)c(F)c4oc3=O)CC3OCC3(OC(C)=O)C2C(OC(=O)c2ccccc2)C2(O)CC(OC(=O)C(O)C(NC(=O)c3ccccc3)c3ccccc3)C(C)=C1C2(C)C` (stereo not drawn) [PB-β-Ala-Taxol], the Kd is 63 ± 8 nM.
